Source: patent US20250282819A1, “MITOCHONDRIA-[…] PEPTIDE THAT CAN BE […] DELIVERED AT NANOMOLAR CONCENTRATION, AND USE THEREOF” (CAMP THERAPEUTICS INC., priority 2021, published 2025)
“Also recorded” adds a separate entry of the source. Where a SMILES comes first, the peptide text is derived from it.

What was measured:
HeLa cells [1] = experiment: Preferential binding to CCCP-damaged mitochondria, confocal microscopy; type: cell-based; conditions: 100 nM 3 hours, 20 μM CCCP
Description: To damage mitochondria, treatment with carbonyl cyanide m-chlorophenyl hydrazone (CCCP) at a concentration of 20 μM was performed for 30 minutes.
For microscopic observation, HeLa cells were cultured in glass-bottom dishes (SPL, 200350, Korea). The cells were then treated with peptides for 3 hours and stained with MitoTracker™ (Thermo Fisher Scientific, A1372, USA; 100 nM, 1 hr), nonyl acridine orange (NAO; Thermo Fisher Scientific, A1372; 100 nM, 1 hr), Hoechst 33342 (1 g/mL, 20 min), CellLight™ early endosomes-GFP (Thermo Fisher Scientific, C10586; 2 L/10,000 cells, 16 hr), and/or LysoTracker™ (Thermo Fisher Scientific, L7525; 50 nM, 30 min). The cells were then rinsed with PBS and HBSS was added thereto. Images of the stained cells were obtained using a microscope (Zeiss LSM 880 and ELYRA PS.1). To generate ultra-high resolution images, a structured illumination process was performed with ZEN Black software. Pearson r values were calculated by using ImageJ software.

HeLa cells [2] = type: cell-based
Description: Cell-penetrating ability was evaluated using the fluorescently-labeled versions of the dimeric bundle peptides synthesized in Example 3, and measured as EC50 values according to the method described in Experimental Example 3.
1×10^5 HeLa cells were seeded into a 24-well plate. After 24 hours, the peptide was added to the cells and further incubation was performed for 3 hours. The incubated cells were harvested, washed with PBS, suspended in PBS, and then analyzed by fluorescence-activated cell sorting (FACS; BD Accuri, USA). The cells whose fluorescence intensity exceeds the maximum intensity of untreated cells were classified as fluorescence-positive cells.

HeLa cells [3] = experiment: Cristae protecting ability by TEM; type: cell-based; conditions: 50 or 100 nM 2 hours, then 0.5 mM H2O2 2 hours
Source text: In order to determine the mode of action of the peptide according to the disclosure, attenuation of cristae number in mitochondria was examined in relation to impaired mitochondrial function caused by H2O2 treatment. In other words, it was investigated whether promotion of normal mitochondrial function caused by CMP3013 was related to preservation of cristae structure. To evaluate this protective effect, transmission electron microscopy (TEM) images were used to observe changes in the shape and number of cristae in damaged HeLa cells in the presence or absence of CMP3013.
1.8×10^6 HeLa cells were fixed with modified Karnovsky fixative [2% paraformaldehyde and 2% glutaraldehyde dissolved in […]] at 4° C. for 3 hours. A sample was washed three times with […] sodium cacodylate buffer (pH 7.2) at 4° C. for 10 minutes, and then post-fixed at 4° C. for 2 hours with 1% osmium tetroxide dissolved in […] sodium cacodylate buffer (pH 7.2). The sample was then washed twice briefly with distilled water. Subsequently, the sample was then en bloc stained with 0.5% uranyl acetate at 4° C. overnight. […]

HeLa cells [4] = experiment: Co-localization with endosome, lysosome and cardiolipin (NAO) markers; type: cell-based
Description: Next, to investigate whether mitochondrial damage affects the amount of peptide present in lysosomes, cardiolipin-specific targeting was investigated using NAO in the presence or absence of CCCP.
For microscopic observation, HeLa cells were cultured in glass-bottom dishes (SPL, 200350, Korea). The cells were then treated with peptides for 3 hours and stained with MitoTracker™ (Thermo Fisher Scientific, A1372, USA; 100 nM, 1 hr), nonyl acridine orange (NAO; Thermo Fisher Scientific, A1372; 100 nM, 1 hr), Hoechst 33342 ([…], 20 min), CellLight™ early endosomes-GFP (Thermo Fisher Scientific, C10586; […], 16 hr), and/or LysoTracker™ (Thermo Fisher Scientific, L7525; 50 nM, 30 min). The cells were then rinsed with PBS and HBSS was added thereto. Images of the stained cells were obtained using a microscope (Zeiss LSM 880 and ELYRA PS.1). To generate ultra-high resolution images, a structured illumination process was performed with ZEN Black software. Pearson r values were calculated by using ImageJ software.

[5] = Cardiolipin binding assay, NBD fluorescence with liposomes
Description: To further validate specificity of CMP3013 for cardiolipin-rich membranes identified in Example 9, two model systems mimicking the inner mitochondrial membrane were constructed using POPC (1-palmitoyl-2-oleoyl-sn-glycero-3-phosphocholine) and POPE (1-palmitoyl-2-oleoyl-sn-glycero-3-phosphoethanolamine), and cardiolipin binding assays were performed using an NBD-labeled CMP3013 monomer (NBD-CMP3013m), according to the method described in Experimental Example 12.
For the association experiments, 1 μM of NBD-labeled peptide dissolved in PBS was prepared in a black 96-well plate. Liposome (POPC:POPE=2:1 or POPC:POPE=2:1, containing 10% cardiolipin) was added to the peptide until the desired concentration was achieved. The mixture of NBD-peptide and liposome was mixed well through pipetting, and then fluorescence emission of the sample was monitored (λex=467 nm, λem=536 nm).
For the association experiments depending on cardiolipin ratio, 1 μM of NBD-labeled peptide or C6-NBD dissolved in PBS was prepared in a black 96-well plate. Liposome (POPC:POPE=2:1, containing 0 to 20% cardiolipin) was added to the peptide until the desired concentration (5 μM) was achieved. This mixture was mixed well through pipetting and fluorescence emission of the sample was monitored (λex=467 nm, λem=536 nm).
For dissociation experiments, 1 μM of NBD-labeled peptide dissolved in PBS was prepared in a black 96-well plate. Liposome (POPC:POPE=2:1 or POPC:POPE=2:1, containing 10% cardiolipin) was added to the peptide until the desired concentration (100 μM) was achieved. The mixture of NBD-peptide and liposome was mixed well through pipetting and fluorescence intensity of the mixture was measured (λex=467 nm, λem=536 nm). The unlabeled peptide (acetylated peptide) was then added to the mixture and mixed well through pipetting. Incubation in the dark was performed for 10 minutes, and then changes in fluorescence intensity were monitored. Peptide addition and fluorescence measurement were repeated until the concentration of acetylated peptide reached 40 μM.

[6] = Membrane potential restoring ability, JC-1, comparison of SS-31 and CMP3013; type: cell-based; conditions: 1 mM H2O2; 10 or 30 nM
Description: For comparison of efficacy of the two peptides on restoration of mitochondrial function, SS-31 and CMP3013 were tested for their effect on membrane potential. The change in mitochondrial membrane potential was measured as a fluorescence ratio of JC-1 according to the method described in Experimental Example 8, and 1 mM of H2O2 was used as a mitochondrial damaging agent.

C57BL/6 mice = experiment: TAA-induced acute liver failure model
Description: Serum samples were obtained from blood collected from the heart on Day 6, and the samples were analyzed using a hematology analyzer (Hitachi Chemical Industries, Ltd., Japan). Blood AST (aspartate aminotransferase), ALT (alanine aminotransferase), and ALP (alkaline phosphatase) were measured and evaluated as liver injury markers.
Serum samples were obtained on the seventh day (Day 7) and analyzed using a hematology analyzer. Blood AST (aspartate aminotransferase), ALT (alanine aminotransferase), and ALP (alkaline phosphatase) were measured and evaluated as liver injury markers.

[7] = 1 mg/kg intravenous x3, TAA 100 mg/kg Day 5, serum Day 6
[8] = mice, 1 mg/kg intravenous, Days 0, 2, 4

Which “targeting of damaged mitochondria” value (HeLa cells [1]) does the source give for CC(=O)N[C@@H](CC1CCCCC1)C(=O)N[C@H]1CSSC[C@@H](C(=O)N[C@@H](CCCNC(=N)N)C(N)=O)NC(=O)[C@H](CC2CCCCC2)NC(=O)[C@H](CCCNC(=N)N)NC(=O)[C@H](CCCNC(=N)N)NC(=O)[C@H](CC2CCCCC2)NC(=O)[C@H](CC(C)C)NC(=O)[C@H](CCCNC(=N)N)NC(=O)[C@@H](NC(=O)[C@H](CC2CCCCC2)NC(C)=O)CSSC[C@@H](C(=O)N[C@@H](CCCNC(=N)N)C(N)=O)NC(=O)[C@H](CC2CCCCC2)NC(=O)[C@H](CCCNC(=N)N)NC(=O)[C@H](CCCNC(=N)N)NC(=O)[C@H](CC2CCCCC2)NC(=O)[C@H](CC(C)C)NC(=O)[C@H](CCCNC(=N)N)NC1=O [CMP3013] (HELM PEPTIDE1{[ac].[Cha].C.R.L.[Cha].R.R.[Cha].C.R.[am]}|PEPTIDE2{[ac].[Cha].C.R.L.[Cha].R.R.[Cha].C.R.[am]}$PEPTIDE1,PEPTIDE2,3:R3-10:R3|PEPTIDE1,PEPTIDE2,10:R3-3:R3$$$V2.0) here?
Its value is “moves into damaged mitochondria; also recorded: preferentially target damaged mitochondria”.

And the “improvement in cell penetration rate as compared with SS-31” value (HeLa cells [2])?
The value was “approximately 100 fold”.

What about the “level of EC50 value (cell-penetrating ability)” value (HeLa cells [2]; comparison of CMP3013, LR10, MPP1a, SS-31) of the same molecule?
The value was “lowest EC50 value”.

And the “number of cristae structures (TEM)” value (HeLa cells [3])?
The value was “same number of normal cristae structures as in the control group with no treatment”.

And the “proportion of peptide present in lysosomes (Pearson r, CMP3013-Lysotracker)” value (HeLa cells [4]; absence of CCCP)?
The value was 0.30.

And the “co-localization of CMP3013 with cardiolipin (NAO), Pearson r” value (HeLa cells [4]; not treated with CCCP)?
Its value is 0.08.

And the “proportion of peptide present in lysosomes (Pearson r, CMP3013-Lysotracker)” value (HeLa cells [4]; presence of CCCP)?
Its value is 0.29.

And the “co-localization of CMP3013 with cardiolipin (NAO), Pearson r” value (HeLa cells [4]; treated with CCCP)?
Its value is 0.43.

What about the “stronger binding capacity for cardiolipin than SS-31” value [5] of the same molecule?
Its value is “approximately 100 fold”.

What about the “mitochondrial membrane potential (Δψm), JC-1 ratio” value [6] of the same molecule?
The value was “increased mitochondrial membrane potential”.

And the “ALP decrease as compared with the TAA-administered group” value (C57BL/6 mice; 1 mg/kg intravenous x3)?
The value was 19%.

And the “AST reduction as compared with the group having received TAA alone” value (C57BL/6 mice; 1 mg/kg intravenous x3)?
The value was 35%.

What about the “blood ALP” value (C57BL/6 mice; [7]) of the same molecule?
Its value is 462.00±81.10 U/L.

And the “blood ALT” value (C57BL/6 mice; [7])?
Its value is 332.60±86.31 U/L.

And the “blood AST” value (C57BL/6 mice; [7])?
Its value is 316.40±52.65 U/L.

What about the “dose dependence of AST and ALT decrease” value (C57BL/6 mice; intraperitoneal 1, 5, or 10 mg/kg) of the same molecule?
The value was “dose-dependent manner”.

And the “blood AST, ALT, and ALP” value (C57BL/6 mice; intraperitoneal x3, TAA 100 mg/kg Day 5, serum Day 7)?
The value was “all significantly reduced”.

And the adverse events (C57BL/6 mice; [8])?
The adverse events was “no adverse events occurred”.

What about the mortality (C57BL/6 mice; [8]) of the same molecule?
Its mortality is “no animals died”.

What about the weight loss (C57BL/6 mice; mice, TAA and/or CMP3013) of the same molecule?
The weight loss was “no weight loss was observed”.
